This is an account of results in patent US8784633B2, “Automatic positioning and sensing microelectrode arrays” (priority 2007, dated 2014).

The subject of the experiment is cortical neurons. The experiment in a line: Multi-site recording of extracellular spontaneous electrophysiological activity of cortical neuronal networks on APSMEA. Type of experiment: cell-based, rat. The protocol: FIG. 3 is a process flow diagram 300 of a process for controlling movement of target cells into a predetermined location using negative DEP forces. At 302, target cells (e.g., neuronal cells) in suspension are introduced onto a APSMEA device 100. The target cells are prepared according to institutional guidelines for care and use of animals. For example, to obtain neuronal cells, cortical neurons are excised from 18-day rat embryos and dissociated by trituration after digestion with papain (20 U/ml). The neurons are then resuspended in Neurobasal medium with B27 supplement and 500 μM glutamine. The medium initially added to new cultures are also supplemented with 25 μM glutamate and 25 μM β-mercaptoethanol. With four different concentrations, i.e., 1×10^5 cells/ml, 2×10^5 cells/ml, 5×10^5 cells/ml and 1×10^6 cells/ml, neurons are seeded on the APSMEA device 100 after coating with poly-L-lysine (50 μg/ml) and laminin (10 μg/ml).
FIG. 6a-c represent results of multi-site recordings of extracellular spontaneous electrophysiological activities from cortical neuronal networks (14 DIV) for control (no DEP forces applied) and manipulated (with DEP forces applied) cells at the seeding cell concentration of 5×10^5 cells/ml. Multi-site electrophysiological recordings in this and other implementations can be performed with the APSMEA device connected with a commercial multi-channel amplifier and filtering stage (Cyberkinetics, Salt Lake City, Utah). Measurements are carried out in 14 days old cortical cultures at 37° C., allowing the signals from the recording electrodes 122 amplified (×5000), band-pass filtered (250-7500 Hz), and sampled at 30 kHz/channel on 25 channels simultaneously. Using ±3 times of the standard deviation of the noise level as the threshold value for each channel, electrophysiological activities are detected on-line or off-line. NMDA (5 μM) and APV (5 μM) are also applied in the culture medium, and their related electrophysiological activities before and after any drug (e.g., chemical compounds) administration are both recorded for 10 min. […]

Setting [1] is: 5 μM in culture medium, cortical neurons 14 DIV, 10 min recording, n=4 separate APSMEAs.

Take `N[C@@H](CCCP(=O)(O)O)C(=O)O` [APV]: the “electrical activity level (sum of spikes over all active sites) compared with no drug added control” value under setting [1] is 7.8±7.5 % of control.
For the compound `CN[C@H](CC(=O)O)C(=O)O` [NMDA], under setting [1], the “induced activity level relative to controls” value is “increase three times more than that of controls”.
TTX: the “effect on recorded extracellular action potentials (electrical activities)” value is recorded as “inhibited”.
